Counter-ions that a name gives are not always drawn.
Key:
[1] = biological target: T1, JARID1B (Homo sapiens, UniProt Q9UGL1); test: FLAG-JARID1B histone demethylase assay with AlphaScreen detection (HTS and dose response); type: biochemical; settings: for inhibition at 20 µM: read-out: Inhibitory effect (percent); for Validation result of HTS active: effect of the compound in the JARID1B AlphaScreen demethylase assay / Assay Signal (percent): validation of HTS actives; for Validation result of HTS active: effect of the compound in the JARID1B AlphaScreen demethylase assay: total signal before subtraction of artifact signal; for Assay − Artifact Signal (percent): assay signal minus artifact signal; for Assay Signal (percent): effect of compound in JARID1B AlphaScreen assay;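 on Assay Signal (percent): compound tested at 20 µM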;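 on Assay − Artifact Signal (percent): compound tested at 20 µM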;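 on all read-outs here: FLAG-tagged JARID1B at 4 nM acting on a biotinylated H3K4me3 peptide, demethylation read by AlphaScreen luminescence, with hits checked against bio-H3K4me2 without enzyme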
T1 construct: The FLAG tagged full length JARID1B enzyme was expressed in Sf21 insect cells using FLAG-JARID1B baculoviruses; FLAG (N); made in house; host or cells: Sf21 insect cells (baculovirus)

[2] = AlphaScreen counterscreen against bio-H3K4me2 peptide in the absence of enzyme (artifact signal); settings: for Artifact signal: effect of the compound when it is incubated with bio-H3K4me2 peptide: counterscreen, no enzyme; for Artifact Signal (percent): effect of the compound when incubated with bio-H3K4me2 peptide (counterscreen, no enzyme);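 on all read-outs here: counterscreen run without enzyme against bio-H3K4me2 peptide to remove false positive hits from the JARID1 demethylase AlphaScreen screen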
[3] = high-throughput screen, compound 20 μM, standard demethylase conditions (10 μM α-KG, 50 μM Fe (II))

T1 sequence (Q9UGL1 whole entry): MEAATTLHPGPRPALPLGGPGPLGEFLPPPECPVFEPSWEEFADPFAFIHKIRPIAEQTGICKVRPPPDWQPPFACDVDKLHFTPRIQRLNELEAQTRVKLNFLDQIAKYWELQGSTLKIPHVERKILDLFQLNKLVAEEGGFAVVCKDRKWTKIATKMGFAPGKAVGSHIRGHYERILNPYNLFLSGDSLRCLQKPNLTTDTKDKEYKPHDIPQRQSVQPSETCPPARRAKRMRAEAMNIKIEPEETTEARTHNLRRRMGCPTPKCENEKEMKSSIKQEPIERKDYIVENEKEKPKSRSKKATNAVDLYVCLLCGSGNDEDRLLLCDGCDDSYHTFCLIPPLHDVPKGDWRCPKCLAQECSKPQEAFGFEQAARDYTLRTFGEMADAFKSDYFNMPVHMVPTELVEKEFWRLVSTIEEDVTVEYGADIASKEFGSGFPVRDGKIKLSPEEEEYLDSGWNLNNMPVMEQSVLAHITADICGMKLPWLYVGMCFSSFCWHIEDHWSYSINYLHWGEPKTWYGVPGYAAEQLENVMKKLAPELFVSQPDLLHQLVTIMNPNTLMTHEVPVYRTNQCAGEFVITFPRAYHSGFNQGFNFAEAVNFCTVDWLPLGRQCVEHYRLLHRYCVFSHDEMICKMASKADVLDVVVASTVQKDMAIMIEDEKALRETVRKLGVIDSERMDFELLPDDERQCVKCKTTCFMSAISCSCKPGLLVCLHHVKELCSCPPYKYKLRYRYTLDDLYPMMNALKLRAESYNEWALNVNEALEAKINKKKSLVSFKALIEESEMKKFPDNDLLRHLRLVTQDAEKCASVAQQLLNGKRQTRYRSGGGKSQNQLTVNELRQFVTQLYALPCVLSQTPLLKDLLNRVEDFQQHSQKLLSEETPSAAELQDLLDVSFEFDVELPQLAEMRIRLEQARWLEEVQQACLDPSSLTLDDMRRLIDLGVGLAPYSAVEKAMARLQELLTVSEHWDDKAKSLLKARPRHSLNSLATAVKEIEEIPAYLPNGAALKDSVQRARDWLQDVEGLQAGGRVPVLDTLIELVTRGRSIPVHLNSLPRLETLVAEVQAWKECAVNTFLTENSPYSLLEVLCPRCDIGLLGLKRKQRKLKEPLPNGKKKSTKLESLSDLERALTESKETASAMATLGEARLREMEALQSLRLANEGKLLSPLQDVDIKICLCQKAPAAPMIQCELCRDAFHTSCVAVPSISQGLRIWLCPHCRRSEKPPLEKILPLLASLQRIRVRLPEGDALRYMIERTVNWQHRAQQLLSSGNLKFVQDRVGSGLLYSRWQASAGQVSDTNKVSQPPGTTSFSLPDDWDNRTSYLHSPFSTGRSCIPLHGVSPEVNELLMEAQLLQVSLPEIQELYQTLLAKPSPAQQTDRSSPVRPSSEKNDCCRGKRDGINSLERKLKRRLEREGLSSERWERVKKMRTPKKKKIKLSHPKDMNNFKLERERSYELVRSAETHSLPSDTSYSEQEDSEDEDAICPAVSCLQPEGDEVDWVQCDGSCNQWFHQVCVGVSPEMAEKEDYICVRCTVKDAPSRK

CSc1nc2cc(F)c(F)cc2n1C [YU145132]
inhibition at 20 µM [1, 3]: 91.5%
Validation result of HTS active: effect of the compound in the JARID1B AlphaScreen demethylase assay [1]: −6.93
Artifact signal: effect of the compound when it is incubated with bio-H3K4me2 peptide [2]: −7.06

CC(C)NNC(=O)c1ccncc1 [YU034066, IPRONIAZID SULFATE, reference compound]
Assay − Artifact Signal (percent) [1]: 69.09%
inhibition at 20 µM [1, 3]: 75.9%
Assay Signal (percent) [1]: 72.51%
Artifact Signal (percent) [2]: 3.41%

S=C(Nc1ccc2c(c1)OCO2)Nn1cnnc1 [YU147019]
Assay − Artifact Signal (percent) [1]: 17.76%
inhibition at 20 µM [1, 3]: 37.3%
Assay Signal (percent) [1]: 16.46%
Artifact Signal (percent) [2]: −1.29%

Oc1c(C(Nc2ccc(Cl)cc2)c2cccnc2)ccc2cccnc12 (stereo not shown) [YU172165]
Assay − Artifact Signal (percent) [1]: 14.24%
inhibition at 20 µM [1, 3]: 42.3%
Assay Signal (percent) [1]: 43.01%
Artifact Signal (percent) [2]: 28.76%

O=c1c(-c2cc(O)c(O)c(O)c2)coc2cc(O)c(O)c(O)c12 [YU155411, IRIGENOL, reference compound]
Assay − Artifact Signal (percent) [1]: 31.75%
inhibition at 20 µM [1, 3]: 94.9%
Assay Signal (percent) [1]: 22.64%
Artifact Signal (percent) [2]: −9.11%

NC(CO)C(=O)NNCc1ccc(O)c(O)c1O (stereo not shown) [YU033702, BENSERAZIDE HYDROCHLORIDE, reference compound]
Assay − Artifact Signal (percent) [1]: 52.50%
inhibition at 20 µM [1, 3]: 70.6%
Assay Signal (percent) [1]: 73.96%
Artifact Signal (percent) [2]: 21.46%

NS(=O)(=O)c1cccc(NC(=O)c2cccnc2Oc2ccccc2)c1 [YU016812]
inhibition at 20 µM [1, 3]: 34.2%
Validation result of HTS active: effect of the compound in the JARID1B AlphaScreen demethylase assay [1]: 10.22
Artifact signal: effect of the compound when it is incubated with bio-H3K4me2 peptide [2]: 13.27

O=C(O)c1cc(N(Cc2ccccc2O)Cc2cc(O)ccc2O)ccc1O [YU154829, LAVENDUSTIN A, reference compound]
Assay − Artifact Signal (percent) [1]: 30.24%
inhibition at 20 µM [1, 3]: 50.3%
Assay Signal (percent) [1]: 38.57%
Artifact Signal (percent) [2]: 8.32%

Cc1ccc(C)c(CN2CCN(Cc3ccccc3)CC2)c1 [YU105182]
inhibition at 20 µM [1, 3]: 35.3%
Validation result of HTS active: effect of the compound in the JARID1B AlphaScreen demethylase assay [1]: 3.14
Artifact signal: effect of the compound when it is incubated with bio-H3K4me2 peptide [2]: −1.74

O=C(O)c1cc(O)c2c(c1)[C@@H]([C@H]1c3cc(C(=O)O)cc(O)c3C(=O)c3c(O[C@H]4O[C@H](CO)[C@@H](O)[C@H](O)[C@H]4O)cccc31)c1cccc(O[C@H]3O[C@H](CO)[C@@H](O)[C@H](O)[C@H]3O)c1C2=O (stereo in doubt) [YU155201, SENNOSIDE A, reference compound]
inhibition at 20 µM [1, 3]: 60%
Validation result of HTS active: effect of the compound in the JARID1B AlphaScreen demethylase assay [1]: 72.27
Artifact signal: effect of the compound when it is incubated with bio-H3K4me2 peptide [2]: 68.65

O=c1cc(-c2cc(O)c(O)c(O)c2)oc2cc(O)cc(O)c12 [YU155308, HIERACIN, reference compound]
inhibition at 20 µM [1, 3]: 40.7%
Validation result of HTS active: effect of the compound in the JARID1B AlphaScreen demethylase assay [1]: 34.84
Artifact signal: effect of the compound when it is incubated with bio-H3K4me2 peptide [2]: 92.13

c1cc2c(cc1CNc1ccc(N3CCCC3)cc1)OCO2 [YU149834]
inhibition at 20 µM [1, 3]: 48.1%
Validation result of HTS active: effect of the compound in the JARID1B AlphaScreen demethylase assay [1]: 28.52
Artifact signal: effect of the compound when it is incubated with bio-H3K4me2 peptide [2]: 27.95

COc1ccccc1OCC(O)COC(N)=O (stereo not shown) [YU033898, METHOCARBAMOL, reference compound]
inhibition at 20 µM [1, 3]: 93.2%
Validation result of HTS active: effect of the compound in the JARID1B AlphaScreen demethylase assay [1]: 0.74
Artifact signal: effect of the compound when it is incubated with bio-H3K4me2 peptide [2]: 18.66

O=C(O[C@@H]1Cc2c(O)cc(O)cc2O[C@@H]1c1cc(O)c(O)c(O)c1)c1cc(O)c(O)c(O)c1 [YU153090, EPIGALLOCATECHIN-3- MONOGALLATE, reference compound]
Validation result of HTS active: effect of the compound in the JARID1B AlphaScreen demethylase assay [1]: 95.83
Artifact signal: effect of the compound when it is incubated with bio-H3K4me2 peptide [2]: 90.25

C=CCn1c(-c2cccc(OC)c2OC)n[nH]c1=S [YU148159]
Assay − Artifact Signal (percent) [1]: 35.74%
inhibition at 20 µM [1, 3]: 30.4%
Assay Signal (percent) [1]: 38.72%
Artifact Signal (percent) [2]: 2.98%

Cc1ccc(C)c(NS(=O)(=O)c2ccc3[nH]c(=O)oc3c2)c1 [YU152226]
Assay − Artifact Signal (percent) [1]: 11.28%
inhibition at 20 µM [1, 3]: 60.1%
Assay Signal (percent) [1]: 5.25%
Artifact Signal (percent) [2]: −6.03%

COc1cc2cc3c4cc(OC)c(OC)cc4cc[n+]3c(C)c2cc1OC.[Cl-] [YU155528, CORALYNE CHLORIDE, reference compound]
inhibition at 20 µM [1, 3]: 73.2%
Validation result of HTS active: effect of the compound in the JARID1B AlphaScreen demethylase assay [1]: −1.03
Artifact signal: effect of the compound when it is incubated with bio-H3K4me2 peptide [2]: −5.30

C=NC(C(=O)N[C@H]1C(=O)N2C1SC(C)(C)C2C(=O)O)c1ccccc1 (stereo in doubt) [YU034263, METAMPICILLIN SODIUM, reference compound]
Assay − Artifact Signal (percent) [1]: 24.14%
inhibition at 20 µM [1, 3]: 95.6%
Assay Signal (percent) [1]: 24.27%
Validation result of HTS active: effect of the compound in the JARID1B AlphaScreen demethylase assay [1]: 3.14
Artifact signal: effect of the compound when it is incubated with bio-H3K4me2 peptide [2]: 0.44
Artifact Signal (percent) [2]: 0.13%

N#CC(=Cc1ccncc1)c1nc2ccccc2s1 [YU147088]
Assay − Artifact Signal (percent) [1]: 45.66%
inhibition at 20 µM [1, 3]: 39.8%
Assay Signal (percent) [1]: 46.00%
Artifact Signal (percent) [2]: 0.34%

COc1cc(NC(C)CCCN)c2ncccc2c1 (stereo not shown) [YU033971, PRIMAQUINE DIPHOSPHATE, reference compound]
Assay − Artifact Signal (percent) [1]: 50.60%
inhibition at 20 µM [1, 3]: 57.5%
Assay Signal (percent) [1]: 46.49%
Artifact Signal (percent) [2]: −4.11%

CCOc1cc(Cl)c(S(=O)(=O)n2ccnc2)cc1Cl [YU152583]
inhibition at 20 µM [1, 3]: 45.9%
Validation result of HTS active: effect of the compound in the JARID1B AlphaScreen demethylase assay [1]: 1.32
Artifact signal: effect of the compound when it is incubated with bio-H3K4me2 peptide [2]: −4.74

CCOc1c(CNc2ccc(N3CCCC3)cc2)cccc1OC [YU153287]
Assay − Artifact Signal (percent) [1]: 11.21%
inhibition at 20 µM [1, 3]: 54.2%
Assay Signal (percent) [1]: 28.35%
Artifact Signal (percent) [2]: 17.14%

Cc1nc(NC(=O)c2cc3ccccc3o2)sc1C [YU147750]
inhibition at 20 µM [1, 3]: 86.4%
Validation result of HTS active: effect of the compound in the JARID1B AlphaScreen demethylase assay [1]: −2.53
Artifact signal: effect of the compound when it is incubated with bio-H3K4me2 peptide [2]: −6.59

C=CCn1c(S)nnc1CNC(=O)c1cccc(C)c1 [YU149014]
Assay − Artifact Signal (percent) [1]: 49.04%
inhibition at 20 µM [1, 3]: 35.7%
Assay Signal (percent) [1]: 47.61%
Artifact Signal (percent) [2]: −1.43%

Cc1cccc(-n2c(=O)c(O)nc3cc([N+](=O)[O-])ccc32)c1 [YU149941]
inhibition at 20 µM [1, 3]: 51.1%
Validation result of HTS active: effect of the compound in the JARID1B AlphaScreen demethylase assay [1]: −12.32
Artifact signal: effect of the compound when it is incubated with bio-H3K4me2 peptide [2]: −16.01

COc1c(O)cc2c(c1O)[C@@H]1O[C@H](CO)[C@@H](O)[C@H](O)[C@H]1OC2=O [YU155621, BERGENIN, reference compound]
Assay − Artifact Signal (percent) [1]: 73.02%
inhibition at 20 µM [1, 3]: 96.8%
Assay Signal (percent) [1]: 93.44%
Artifact Signal (percent) [2]: 20.42%

CC(C)=CCc1c2c(c3occ(-c4ccc(O)c(O)c4)c(=O)c3c1O)C=CC(C)(C)O2 [YU033628, POMIFERIN, reference compound]
Inhibitory effect (percent) [1, 3]: 68.25%
Validation result of HTS active: effect of the compound in the JARID1B AlphaScreen demethylase assay [1]: 6.60
Artifact signal: effect of the compound when it is incubated with bio-H3K4me2 peptide [2]: 13.55

Cc1cc(C)nc(Nc2ccc(N(C)C)cc2)n1 [YU146020]
Assay − Artifact Signal (percent) [1]: 8.99%
inhibition at 20 µM [1, 3]: 30.9%
Assay Signal (percent) [1]: 12.15%
Artifact Signal (percent) [2]: 3.15%

N[C@@H](Cc1ccc(O)c(O)c1)C(=O)O [YU034332, LEVODOPA, reference compound]
Assay − Artifact Signal (percent) [1]: 41.47%
inhibition at 20 µM [1, 3]: 68.8%
Assay Signal (percent) [1]: 55.74%
Artifact Signal (percent) [2]: 14.27%

Cc1cccc(NC(c2cccnc2)c2ccc3cccnc3c2O)n1 (stereo not shown) [YU172179]
Assay − Artifact Signal (percent) [1]: 10.43%
inhibition at 20 µM [1, 3]: 58.1%
Assay Signal (percent) [1]: 63.74%
Artifact Signal (percent) [2]: 53.31%

Oc1cc2c(cc1O)C1c3ccc(O)c(O)c3OCC1(O)C2 (stereo not shown) [YU155005, HAEMATOXYLIN, reference compound]
Assay − Artifact Signal (percent) [1]: 64.59%
inhibition at 20 µM [1, 3]: 101%
Assay Signal (percent) [1]: 98.90%
Artifact Signal (percent) [2]: 34.32%

CCC(=O)Nc1cnc(N2CCN(c3ccc(Cl)cc3)CC2)c(C(=O)O)c1 [YU208250]
Assay − Artifact Signal (percent) [1]: 14.69%
inhibition at 20 µM [1, 3]: 44.5%
Assay Signal (percent) [1]: 21.70%
Artifact Signal (percent) [2]: 7.01%

COc1ccc2nc(NCc3ccncc3)sc2c1 [YU147704]
Assay − Artifact Signal (percent) [1]: 54.05%
inhibition at 20 µM [1, 3]: 70.4%
Assay Signal (percent) [1]: 55.47%
Artifact Signal (percent) [2]: 1.42%

O=C(O[C@@H]1Cc2c(O)cc(O)cc2O[C@@H]1c1cc(O)c(=O)c2c(O)c(O)cc([C@H]3Oc4cc(O)cc(O)c4C[C@H]3OC(=O)c3cc(O)c(O)c(O)c3)c2c1)c1cc(O)c(O)c(O)c1 (stereo in doubt) [YU155100, THEAFLAVIN DIGALLATE, reference compound]
inhibition at 20 µM [1, 3]: 105%
Validation result of HTS active: effect of the compound in the JARID1B AlphaScreen demethylase assay [1]: 104.28
Artifact signal: effect of the compound when it is incubated with bio-H3K4me2 peptide [2]: 98.76

C=CCO[C@H]1[C@H](O)[C@H](OCC=C)[C@H](O)[C@@H](OCC=C)[C@@H]1O [YU035165]
Assay − Artifact Signal (percent) [1]: 13.07%
inhibition at 20 µM [1, 3]: 49.5%
Assay Signal (percent) [1]: 15.19%
Artifact Signal (percent) [2]: 2.11%

O=C(CCCCCCC(=O)N(c1ccccc1)c1ccccc1)N(c1ccccc1)c1ccccc1 [YU105079]
inhibition at 20 µM [1, 3]: 68.9%
Validation result of HTS active: effect of the compound in the JARID1B AlphaScreen demethylase assay [1]: 44.39
Artifact signal: effect of the compound when it is incubated with bio-H3K4me2 peptide [2]: 43.24

Source: US20150272939A1, “Identification of Small Molecule Inhibitors of Jumonji AT-Rich Interactive Domain 1A (JARID1A) and 1B (JARID1B) Histone Demethylase” (Yale University, priority 2012, published 2015)
